Data from patent publication US11840686B2, “Modulation of prekallikrein (PKK) expression” (Ionis Pharmaceuticals, Inc., priority 2013, dated 2023).
Strand notation (5' to 3'): a small letter for the sugar, then the base; units joined by * are phosphorothioate-linked, units joined directly phosphodiester-linked; [ ] holds rarer units or linkages, { } end groups; capitals alone tell only the bases. e = 2'-O-(2-methoxyethyl) (MOE); [5mC] = 5-methylcytosine; d = 2'-deoxy (DNA)

Tested on: human PKK mRNA
Test: Antisense inhibition of human PKK mRNA in HepaRG cells, 5,000 nM (Example 2)
Type: cell-based
In short: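 HepaRG cells, 20,000 per well, were electroporated with 5,000 nM MOE gapmer (phosphorothioate, 5-methylcytosine) and incubated about 24 hours. PKK mRNA was quantified by qRT-PCR with primer probe set RTS3454, normalized to RIBOGREEN total RNA, and expressed as percent inhibition versus untreated controls.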

[1] = HepaRG cells, 5,000 nM antisense oligonucleotide, 5-10-5 gapmers, Table 16
[2] = human PKK mRNA, HepaRG cells, 5,000 nM antisense oligonucleotide, Table 18
[3] = HepaRG cells, electroporation, 5,000 nM antisense oligonucleotide, approx. 24 hours, primer probe set RTS3454, relative to untreated control cells, Table 12
[4] = Table 13, human PKK mRNA in HepaRG cells, 5-10-5 gapmers
[5] = HepaRG cells, electroporation, 5,000 nM antisense oligonucleotide, approx. 24 hours, primer probe set RTS3454, relative to untreated control cells, Table 11
[6] = human PKK mRNA, HepaRG cells, 5-10-5 motif oligonucleotides targeting SEQ ID NO: 1 and 10

547721 (e[5mC]*eT*e[5mC]*eT*eA*dT*d[5mC]*dA*dA*dA*dA*dT*d[5mC]*d[5mC]*dT*eG*e[5mC]*eT*eG*e[5mC]; antisense) [compound 547721]
% inhibition [1]: 68%

546174 (antisense e[5mC]*e[5mC]*eT*eG*eT*dT*d[5mC]*dG*dA*dT*dG*dT*dA*d[5mC]*dT*eT*eT*eT*eG*eG) [compound 546174]
% inhibition (HepaRG cells, electroporation with 5,000 nM antisense oligonucleotide, approximately 24 hours, PKK mRNA by RT-PCR (RTS3454), relative to untreated control cells, Table 6 experiment): 74%

548739 (DNA eG*eT*eA*e[5mC]*dT*dA*dG*dT*dT*dT*d[5mC]*d[5mC]*dT*eA*eT*eA*eA; antisense) [compound 548739]
% inhibition [2]: 0%

546695 (eG*eG*eG*eA*e[5mC]*dA*dA*dT*d[5mC]*dT*d[5mC]*d[5mC]*dA*d[5mC]*d[5mC]*e[5mC]*e[5mC]*e[5mC]*eG*eA; antisense) [compound 546695]
% inhibition [3]: 36%

547561 (eA*eA*eG*eG*eG*dA*dA*dA*dT*dT*dA*dG*dA*dG*dG*e[5mC]*eA*eG*eG*e[5mC]; antisense) [compound 547561]
% inhibition [4]: 57%

547063 (e[5mC]*eG*eT*e[5mC]*eA*dT*dG*d[5mC]*dT*dT*dA*d[5mC]*d[5mC]*dT*dT*eT*e[5mC]*eT*e[5mC]*e[5mC]; antisense) [compound 547063]
% inhibition (HepaRG cells, 5,000 nM antisense oligonucleotide, 5-10-5 gapmers, Table 17): 23%

547511 (antisense eG*eA*eT*eG*eA*dG*dG*dA*d[5mC]*d[5mC]*d[5mC]*d[5mC]*d[5mC]*d[5mC]*dA*eG*eG*e[5mC]*eT*e[5mC]) [compound 547511]
% inhibition [5]: 53%

546732 (eG*eG*eA*eT*eT*dT*dG*dG*d[5mC]*d[5mC]*d[5mC]*dT*dG*dA*dG*e[5mC]*e[5mC]*e[5mC]*e[5mC]*eA; antisense) [compound 546732]
% inhibition [4]: 14%

548747 (antisense eT*eA*e[5mC]*eT*dA*dG*dT*dT*dT*d[5mC]*d[5mC]*dT*dA*dT*eA*eA*e[5mC]*eT) [compound 548747]
% inhibition [2]: 2%

546687 (eT*eG*eA*eG*eA*d[5mC]*d[5mC]*dT*d[5mC]*d[5mC]*dA*dG*dA*d[5mC]*dT*eA*e[5mC]*eT*eG*eT; antisense) [compound 546687]
% inhibition [3]: 76%

548715 (DNA eA*eT*e[5mC]*dA*d[5mC]*dT*dG*dT*dA*d[5mC]*dT*dA*dG*eT*eT*eT; antisense) [compound 548715]
% inhibition (HepaRG cells, 5,000 nM antisense oligonucleotide, human PKK mRNA, Table 18): 0%

547393 (eT*eG*e[5mC]*eA*eG*dG*dT*dT*dA*dA*dA*dA*dG*dG*d[5mC]*eT*eA*eT*eA*eT; antisense) [compound 547393]
% inhibition (Table 7, HepaRG cells, electroporation with 5,000 nM antisense oligonucleotide, approx. 24 hours, PKK mRNA by RT-PCR (RTS3454), relative to untreated control cells): 73%

546858 (e[5mC]*eT*eA*eT*eA*dA*d[5mC]*dT*dA*dT*dA*dA*d[5mC]*dA*dG*eT*eA*eT*e[5mC]*eA; antisense) [compound 546858]
% inhibition (human PKK mRNA in HepaRG cells, 5-10-5 gapmers, Table 14): 21%

546683 (eT*e[5mC]*e[5mC]*eT*eA*dT*d[5mC]*d[5mC]*dG*dT*dG*dT*dT*d[5mC]*dA*eG*e[5mC]*eT*eG*eT; antisense) [compound 546683]
% inhibition [3]: 69%

547433 (eG*eT*e[5mC]*e[5mC]*e[5mC]*d[5mC]*dA*dG*dT*dG*dT*dT*dA*d[5mC]*dA*e[5mC]*eA*eA*eT*e[5mC]; antisense) [compound 547433]
% inhibition (Table 8, HepaRG cells, electroporation with 5,000 nM antisense oligonucleotide, approx. 24 hours, PKK mRNA by RT-PCR (RTS3454), relative to untreated control cells): 63%

547572 (eA*eA*eA*eT*eG*dA*d[5mC]*dA*d[5mC]*d[5mC]*dA*dA*dA*dA*dT*eT*e[5mC]*eG*e[5mC]*eT; antisense) [compound 547572]
% inhibition [4]: 40%

547642 (eT*e[5mC]*eA*e[5mC]*eT*dG*dT*d[5mC]*d[5mC]*dT*dA*dT*dA*dA*d[5mC]*eT*eA*eT*eA*eA; antisense) [compound 547642]
% inhibition [6]: 72%

547639 (eG*eT*e[5mC]*e[5mC]*eT*dA*dT*dA*dA*d[5mC]*dT*dA*dT*dA*dA*e[5mC]*eA*eG*eT*eA; antisense) [compound 547639]
% inhibition [6]: 72%

547522 (antisense eG*eA*eA*eA*eG*d[5mC]*dG*dG*dG*d[5mC]*dT*dT*d[5mC]*dA*dG*e[5mC]*e[5mC]*eA*eG*eA) [compound 547522]
% inhibition [5]: 73%

547719 (eT*eA*e[5mC]*e[5mC]*eA*dA*dG*d[5mC]*dT*dT*dG*dT*dA*dG*dA*eA*eG*eG*eG*eA; antisense) [compound 547719]
% inhibition [1]: 69%
